Reference: patent US5543517A, “Substituted bicyclic phosphoramides and derivatives thereof” (The DuPont Merck Pharmaceutical Company, priority 1994, dated 1996)
Converted amounts (≈) assume the structure as drawn. Where two headings read alike, the source gives them in different places.

What was measured:
[1] = tested on: HIV-1 (RF); assay: HIV RNA assay (microplate based compound evaluation in HIV-1 infected MT-2 cells); type: cell-based
Method: DNA Plasmids and In Vitro RNA Transcripts
Plasmid pDAB 72 containing both gag and pol sequences of BH10 (bp 113-1816) cloned into PTZ 19R was prepared according to Erickson-Viitanen et al. AIDS Research and Human Retroviruses 1989, 5, 577. The plasmid was linearized with Bam HI prior to the generation of in vitro RNA transcripts using the Riboprobe Gemini system II kit (Promega) with T7 RNA polymerase. Synthesized RNA was purified by treatment with RNase free DNAse (Promega), phenol-chloroform extraction, and ethanol precipitation. RNA transcripts were dissolved in water, and stored at -70° C. The concentration of RNA was determined from the A260.
Biotinylated capture probes were purified by HPLC after synthesis on an Applied Biosystems (Foster City, Calif.) DNA synthesizer by addition of biotin to the 5' terminal end of the oligonucleotide, using the biotinphosphoramidite reagent of Cocuzza, Tet. Lett. 1989, 30, 6287. The gag biotinylated capture probe (5-biotin-[…] 3') was complementary to nucleotides 889-912 of HXB2 and the pol biotinylated capture probe (5'-biotin --[…] 3') was complementary to nucleotides 2374-2395 of HXB2. Alkaline phosphatase conjugated oligonucleotides used as reporter probes were prepared by Syngene (San Diego, Calif.). The pol reporter probe (5' […] 3') was complementary to nucleotides 2403-2425 of HXB2. The gag reporter probe (5' […] 3') was complementary to nucleotides 950-973 of HXB2. All nucleotide positions are those of the GenBank Genetic Sequence Data Bank as accessed through the Genetics Computer Group Sequence Analysis Software Package (Devereau Nucleic Acids Research 1984, 12, 387). The reporter probes were prepared as 0.5 μM stocks in 2×SSC(0.3M NaCl, 0.03M sodium citrate), 0.05M Tris pH 8.8, 1 mg/mL BSA. The biotinylated capture probes were prepared as 100 μM stocks in water.
Streptavidin Coated Plates
Nunc-immunomodule microtiter plate strips were coated by addition of 200 μL of streptavidin (30 μg/mL, Scripps, La Jolla, Calif.) in freshly prepared 10 mM sodium carbonate (pH 9.6). Plates were incubated overnight at 4° C. Streptavidin solution was aspirated from the wells and a blocking buffer composed of phosphate buffered saline (PBS), 20 mg/mL bovine serum albumin (crystalline, nuclease and protease free, Calbiochem) and 100 mg/mL lactose (Sigma) was added to the plates for 3 hrs at room temperature. Blocking buffer was removed from the wells, which were allowed to dry overnight at room temperature and subsequently stored at 4° C. in zip lock bags with desiccant. For the majority of the compound evaluation experiments, streptavidin coated plates were obtained from Du Pont Biotechnology Systems (Boston, Mass.).
MT-2, CEM, and H9 cells were maintained in RPMI 1640 supplemented with 5% fetal calf serum (FCS), 2 mM L-glutamine and 50 μg/mL gentamycin, all from Gibco. Laboratory strains of HIV-1 (RF, MN and IIIB) were propagated in H9 cells in the same medium. Virus stocks were prepared approximately 1 month after acute infection of H9 cells by clarification of the tissue culture medium and storage of aliquots at -70° C. Infectious titers of HIV-1 (RF) stocks were 1-3×10^7 PFU (plaque forming units)/mL as measured by plaque assay on MT-2 cells (see below). Each aliquot of virus stock used for infection was thawed only once. In some cases, infected H9 cells were shifted to Dulbecco's modified Eagle's medium 3-10 days before collection of virus in order to generate virus stocks in medium with low biotin content. Clinical isolates of HIV that had been passaged once in MT-2 cells were used to infect fresh MT-2 cells in RPMI medium. Three days after infection, cells were pelleted, resuspended and culture continued in Dulbecco's modified Eagle's medium as above. Virus stocks of clinical isolates were prepared 10-15 days after infection when cytopathic effects were apparent in the culture. […]

[2] = biological target: T1, HIV-1 protease (HIV-1 M:B_HXB2R, UniProt P04585); assay: HIV protease inhibition assay (HPLC method); type: biochemical; conditions: pH 5.5, 30° C., 1 hr
T1 construct: cut from Gag-Pol polyprotein
Method: The Ki values in TABLE 1 were determined using the assay conditions described below under HIV Protease Inhibition Assay (HPLC Method). The Ki values are indicated as follows: +++=<10 nM; ++=10 nM to 1 μM; +=>[…].
HIV PROTEASE INHIBITION ASSAY (HPLC METHOD)
Protease: Inclusion bodies of E. coli harboring plasmid T1718R with a synthetic gene coding for a single-chain tethered dimer of HIV protease were prepared as described in Cheng et al. Proc. Natl. Acad. Sci. USA 1990, 87, 9660. Active protease was prepared as described therein by extraction with 67% acetic acid, dilution 33-fold with water, dialysis against water and then against a "refolding buffer" comprising 20 mM MES, 1 mM dithiothreitol and 10% glycerol, pH 5.5. Protease was stored as a stock preparation at 10 uM in refolding buffer.
Substrate: Peptide of the sequence aminobenzoyl-Ala-Thr-His-Gln-Val-Tyr-Phe(NO2)-Val-Arg-Lys-Ala containing p-nitrophenylalanine (Phe(NO2)), was prepared by solid phase synthesis as previously described (Cheng et al. Proc. Natl. Acad. Sci. USA 1990, 87, 9660). Stock solutions of 2 mM substrate were prepared in DMSO.
Inhibitory compounds were dissolved in sufficient DMSO to make 3 mM stock solutions. All further dilutions were prepared in "assay buffer" comprising 1M NaCl, 50 mM MES, pH 5.5, 1 mM EDTA, 1 mM DTT and 20% glycerol.
Enzyme reaction: To a 2 mL screw-cap centrifuge tube were added 50 uL protease (final concentration 0.25 nM) and 0.1 mL inhibitor compound (final concentration 0.1-12,500 nM). After 15 min preincubation at room temperature, the reaction was started by the addition of 0.05 mL substrate (final concentration 5 uM). Incubation was carried out at 30° C. for 1 hr. The reaction was stopped by addition of 1 mL of 0.1M ammonium hydroxide solution.
HPLC measurement of product formation: The product (aminobenzoyl-Ala-Thr-His-Gln-Val-Tyr) was separated from substrate on a Pharmacia MonoQ anion exchange column. The injection volume was 0.2 mL. The mobile phases comprised: solution A (20 mM tris HCl, pH 9.0, 0.02% sodium azide, 10% acetonitrile), and solution B (20 mM tris HCl, pH 9.0, 0.02% sodium azide, 0.5M ammonium formate, 10% acetonitrile). The mobile phases were pumped at 1 mL/min, with a gradient from 0 to 30% B in 5 min, 100% B for 4 min to wash the column, and a re-equilibration wash with A for 4 min. The retention time of the product was 3.6 min. Detection with a Shimadzu model RF535 fluorescence monitor was at 330 nm (excitation) and 430 nm (emission). The Ki was calculated from the formula Ki=I/(((Km+S-FA*S)/(FA*Km))-1) where I=inhibitor concentration, S=substrate concentration, FA=fractional activity=cm peak height with inhibitor/cm peak height without inhibitor and Km=Michaelis constant=20 uM.

[3] = tested on: HIV (3B) or HIV (RF); assay: HIV yield reduction cell assay (plaque assay, MT-2 cells); type: cell-based; conditions: Human immunodeficiency virus 1, MT2, 72 h, 3 days
Method: HIV YIELD REDUCTION CELL ASSAY
The following procedure is additionally described in Smallheer et al. Antiviral Chemistry and Chemotherapy 1993, 4(1), 27.
MT-2, a human T-cell line, was cultured in RPMI medium supplemented with 5% (v/v) heat inactivated fetal calf serum (FCS), 2 mM L-glutamine and 50 μg/mL gentamycin (later two compounds available from Gibco) Human immunodeficiency virus strains, HIV (3B) and HIV (RF) were propagated in H-9 cells in RPMI with 5% FCS. Poly-L-lysine (Sigma) coated cell culture plates were prepared according to the method of Harada et al. Science 1985, 229 563. MTT, (3-(4,5-dimethyl-thiazol-2-yl)-2,5-diphenyltetrazolium bromide), was obtained from Sigma.
Method: Test compounds were dissolved in dimethylsulfoxide to 5 mg/mL and serially diluted into RPMI medium to ten times the desired final concentration. […]
The virus titers of the progeny virus produced in the presence or absence of test compounds were determined by plaque assay. […] Clear plaques on a purple background were counted and the number of plaque forming units of virus was calculated for each sample. The antiviral activity of test compounds was determined by the percent reduction in the virus titer with respect to virus grown in the absence of inhibitor. The IC90 values in TABLE 2 were determined using the assay conditions described above under HIV Yield Reduction Assay. […]

[4] = Human immunodeficiency virus 1, MT2, 72 h, HIV RNA assay, HIV-1 (RF) infected MT-2 cells, 3 days, 37° C., read-out: IC90

| IC90 ([1]; Human immunodeficiency virus 1, MT2, HIV-1 (RF), MT-2 cells, virus dilution selected to give this value, read-out: IC90 value (concentration of compound required to reduce the HIV RNA level by 90%)) [µg/mL] | Compound | IC90 [1, 4] [µg/mL] | Ki [2] [nM] | IC90 [3] [µg/mL] |
| --- | --- | --- | --- | --- |
| – | O=P12O[C@H]([C@@H](O)[C@@H](Cc3ccccc3)N1CC1CC1)[C@@H](Cc1ccccc1)N2CC1CC1 [Example 1F, (3-endo,4-endo,6-exo)-2,7-Bis(cyclopropylmethyl)-3,6-bis(phenylmethyl)-8-oxa-2,7-diaza-1-phosphabicyclo [3.2.1]octan-4-ol 1-oxide] | 10 to 100 (≈ 22.1 to 221 µM) | 10 to 1000 | – |
| – | O=P12O[C@H]([C@@H](O)[C@@H](Cc3ccccc3)N1Cc1ccc3ccccc3c1)[C@@H](Cc1ccccc1)N2Cc1ccc2ccccc2c1 [Example 2C, (3-endo,4-endo,6-exo)-2,7-Bis(2-naphthalenylmethyl)-3,6-bis(phenylmethyl)-8-oxa-2,7-diaza-1-phosphabicyclo[3.2.1]octan-4-ol 1-oxide] | > 50 | 10 to 1000 | – |
| – | CCCCN1[C@H](Cc2ccccc2)[C@H](O)[C@H]2OP1(=O)N(CCCC)[C@@H]2Cc1ccccc1 [Example 3C, (3-endo,4-endo,6-exo)-2,7-Bis(butyl)-3,6-bis(phenylmethyl)-8-oxa-2,7-diaza-1-phosphabicyclo[3.2.1]octan-4-ol 1-oxide] | > 50 | 10 to 1000 | – |
| – | O=P12O[C@H]([C@@H](O)[C@@H](Cc3ccccc3)N1Cc1ccccc1)[C@@H](Cc1ccccc1)N2Cc1ccccc1 [Example 4E, (3-endo,4-endo,6-exo)-2,3,6,7-tetrakis (phenylmethyl)-8-oxa-2,7-diaza-1-phosphabicyclo[3.2.1]octan-4-ol 1-oxide] | 10 to 100 (≈ 19.1 to 191 µM) | 10 to 1000 | – |
| – | O=P12O[C@H]([C@@H](O)[C@@H](Cc3ccccc3)N1Cc1ccc(CO)cc1)[C@@H](Cc1ccccc1)N2Cc1ccc(CO)cc1 [Example 5C, (3-endo,4-endo,6-exo)-2,7-Bis(4-(hydroxymethyl)phenylmethyl)-3,6-bis(phenylmethyl)-8-oxa-2,7-diaza-1-phosphabicyclo[3.2.1]octan-4-ol 1-oxide] | < 10 | < 10 | < 10 |
| – | CNc1cccc(CN2[C@H](Cc3ccccc3)[C@H](O)[C@H]3OP2(=O)N(Cc2cccc(NC)c2)[C@@H]3Cc2ccccc2)c1 [Example 6D] | < 10 | 10 to 1000 | – |
| – | O=P12O[C@H]([C@@H](O)[C@@H](Cc3ccccc3)N1Cc1ccc(O)cc1)[C@@H](Cc1ccccc1)N2Cc1ccc(O)cc1 [Example 7D, (3-endo,4-endo,6-exo)-2,7-bis(4-hydroxyphenylmethyl)-3,6-bis(phenylmethyl)-8-oxa-2,7-diaza-1-phosphabicyclo[3.2.1]octan-4-ol 1-oxide] | < 10 | < 10 | – |
| – | O=P12O[C@H]([C@@H](O)[C@@H](Cc3ccccc3)N1Cc1cccc(CO)c1)[C@@H](Cc1ccccc1)N2Cc1cccc(CO)c1 [Example 8C, (3-endo,4-endo,6-exo)-2,7-Bis(3-(hydroxymethyl)phenylmethyl)-3,6-bis(phenylmethyl)-8-oxa-2,7-diaza-1-phosphabicyclo[3.2.1]octan-4-ol 1-oxide] | < 10 | < 10 | – |
| 0.2 (≈ 0.947 µM) | Nc1ccn([C@H]2CC[C@@H](CO)O2)c(=O)n1 [ddC, dideoxycytidine, reference compound] | – | – | – |
